Results as given in EP4701641B1, “5-AMINO-2,3-DIHYDRO-1,4-PHTHAL[…] THE PROPHYLAXIS AND TREATMENT OF […]” (MetrioPharm AG, priority 2023, dated 2025).
Read-outs that look alike come from different tables or passages of the source.

Tests used:
[1] = system: Coronary artery smooth muscle cells; conditions: added 1 hour before stimulation with IL-1β, TNF-α and IFN-γ, 48 hours in culture, triplicates averaged
Protocol: Coronary artery smooth muscle cells pooled from human donors (n = 3) were commercially acquired and cultured according to the recommendations of the manufacturer. They were stimulated with IL-1β, TNF-α and IFN-γ to emulate conditions of vascular inflammation. The […] were cultured in 96 well-plates until confluence. Details are described in Kunkel et al. (2004) FASEB J 18: 1279-1281). […] The substance was added at the indicated concentration 1 hour before stimulation and remained in culture for 48 hours. Each plate contained positive and negative controls (non-stimulated cells) as well as vehicle controls (buffer solution). Direct ELISA (enzyme-linked immunosorbent assay) was used to measure thrombomodulin levels. Soluble factors from supernatants were quantified using capture ELISA.
Measurements were carried out in triplicates which were then averaged and divided by the average of vehicle control samples. Vehicle control samples were taken as 100%.

SARS-CoV-2 = SARS-CoV-2 infected cells; from WO 2021/249667; cited from earlier work
D-dimer = conditions: for D-dimer concentration (median of the group): plasma
Text: The study was randomized, double-blind, and placebo-controlled, with enrollment at 20 IEC (independent ethics committee)-approved sites across six countries (Bulgaria, France, Hungary, Italy Romania, Spain); a list of all participating sites is published on clinicaltrials.gov. (NCT04932941). This study was partially funded by the COVID-19 Horizon Europe work programme (Project No.: 101046182). The funder of the study had no role in study design, data collection, data analysis, data interpretation, or writing of the report.
Further details on the in- and exclusion criteria are available on cliniclatrials.gov NCT04932941.
Stratification factors included baseline COVID-19 severity and age-class (aged ≤ 65 years versus > 65 years).
Patients were treated for 28 days. […] These patients were discharged from the hospital before and received medication (verum or placebo) for continuing self-treatment for the remaining time at home. After 60 days there was a follow-up visit.
The D-dimer level is an important prognostic marker for COVID-19 severity. An elevated D-dimer level is associated with thromboembolic complications. For monitoring the development of this biomarker throughout the study blood samples were taken at Days 1, 7, 14, 21, 28 and 60. The D-dimer concentration was determined (PPD Central Lab, Zaventem, Belgium) from the plasma by means of monoclonal antibodies quantified in an ELISA (cf. Olson (2015) Adv Clin Chem 69: 1 - 46; Johnson et al. (2019) Am J Hematol 94: 833-839).

[2] = system: hospitalized patients with moderate to severe COVID-19

SMILES: Nc1cccc2c(=O)[nH][nH]c(=O)c12.[Na] [5-amino-2,3-dihydro-1,4-phthalazinedione sodium salt]
- thrombomodulin release (vehicle control = 100%) ([1]; 62.5 µM): 127.4%
- thrombomodulin release (vehicle control = 100%) ([1]; 250 µM): 115.1%
- thrombomodulin release (vehicle control = 100%) ([1]; 1 mM): 159.6%
- thrombomodulin release (vehicle control = 100%) ([1]; 4 mM): 255.9%
- replication of the virus (SARS-CoV-2): suppress dose-dependently
- D-dimer concentration (median of the group) (D-dimer; day 60 (follow-up visit)): 138.0 ng/mL DDU
- modelled effect on D-dimer levels compared to placebo (D-dimer; post-hoc analysis, modelled, p<0.001, Fig. 1): significant decrease
- D-dimer concentration (median of the group) (D-dimer; treatment day 1, 300 mg BID plus SoC): 235.5 ng/mL DDU
- D-dimer concentration (median of the group) (D-dimer; treatment day 7, 300 mg BID plus SoC): 205.0 ng/mL DDU
- D-dimer concentration (median of the group) (D-dimer; treatment day 14, 300 mg BID plus SoC): 171.0 ng/mL DDU
- D-dimer concentration (median of the group) (D-dimer; treatment day 21, 300 mg BID plus SoC): 208.0 ng/mL DDU
- D-dimer concentration (median of the group) (D-dimer; treatment day 28, 300 mg BID plus SoC): 172.0 ng/mL DDU
- disease resolution by Day 14 (patients) ([2]; 300 mg BID plus SoC, placebo group 31/43): 69/82
- effect on hemostasis (clinical parameters or adverse side effects) ([2]; clinical study in COVID-19 patients): no evidence
